Patent US8383637B2, “2-amino-quinazoline derivatives useful as inhibitors of β-secretase (BACE)” (Jansssen Pharmaceutica N.V., priority 2004, dated 2013)

Target: T1, β-secretase(BACE) (Homo sapiens, UniProt P56817)
T1 construct: purchased Panvera
Experiment: BACE FS1% Inhibition Assay
Assay type: biochemical
Conditions: FS1 substrate; for % Inhibition (FS) 10 μM: 10 μM test compound
Method in brief: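 Human BACE (4 μg/mL working solution) preincubated 20 min at room temperature with compound, then FS1 substrate (300 μg/mL working solution) added and incubated 1 h at room temperature. Percent inhibition calculated at each compound concentration against blank and vehicle controls.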

T1 sequence (P56817 46-501): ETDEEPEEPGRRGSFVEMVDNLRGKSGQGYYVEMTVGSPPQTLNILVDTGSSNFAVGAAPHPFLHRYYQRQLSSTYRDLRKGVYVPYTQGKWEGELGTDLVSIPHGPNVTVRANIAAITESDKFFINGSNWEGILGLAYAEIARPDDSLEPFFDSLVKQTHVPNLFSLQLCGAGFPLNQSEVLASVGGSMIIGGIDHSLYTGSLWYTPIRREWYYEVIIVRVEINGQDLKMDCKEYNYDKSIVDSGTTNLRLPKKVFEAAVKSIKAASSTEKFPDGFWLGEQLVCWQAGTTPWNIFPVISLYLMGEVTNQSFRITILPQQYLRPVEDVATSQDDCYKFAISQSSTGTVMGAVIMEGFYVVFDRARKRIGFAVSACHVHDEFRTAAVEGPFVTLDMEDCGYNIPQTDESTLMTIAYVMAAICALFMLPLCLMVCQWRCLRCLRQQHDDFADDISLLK

% Inhibition (FS) 0.3 μM (0.3 μM test compound) [%]	% Inhibition (FS) 1 μM (1 μM test compound) [%]	% Inhibition (FS) 3 μM (3 μM test compound) [%]	Compound	also measured
<30	37	49	CN(C(=O)c1cccc(CN2Cc3cc(Oc4cccc(Oc5ccccc5)c4)ccc3N=C2N)c1)C1CCCCC1 [Compound 236]	
		39	NC1=Nc2ccc(Oc3ccccc3)cc2CN1CCCCNC(=O)C1CCCC1 [Compound 116]	% Inhibition (FS) 10 μM: 81%
<30	<30	<30	CC(=O)Nc1ccc(C(=O)NCCN2Cc3cc(-c4cccc(C(F)(F)F)c4)ccc3N=C2N)cc1 [Compound 594]	
<30	<30	52	CC(C)C(CC(=O)NC1CCCCC1)N1Cc2cc(Oc3ccccc3)ccc2N=C1N (stereo not shown) [Compound 401]	
<30	<30	<30	CC(c1ccccc1)c1ccc2c(c1)CN(Cc1cccc(C(=O)N(C)C3CCCCC3)c1)C(N)=N2 (stereo not shown) [Compound 332]	
			CN(C(=O)c1ccc2c(c1)C(N1Cc3cc(Oc4ccccc4)ccc3N=C1N)c1ccccc1-2)C1CCCCC1 (stereo not shown) [Compound 118]	% Inhibition (FS) 3 μM (3 μM test compound, 3 µM): 48%; % Inhibition (FS) 10 μM (10 µM): 91%
31	63	91	CCCC(=O)NCCN1Cc2cc(-c3ccccc3Cl)ccc2N=C1N [Compound 652]	
<30	<30	<30	CC(C)CCC(=O)NCC(Cc1ccc(O)cc1)N1Cc2cc(Oc3ccccc3)ccc2N=C1N (stereo not shown) [Compound 615]	
<30	<30	<30	COc1ccc(Nc2ccc3c(c2)CN(Cc2cccc(C(=O)N(C)C4CCCCC4)c2)C(N)=N3)cc1 [Compound 434]	
		<30	CCCCCCCCCC(=O)NCCN1Cc2cc(Oc3ccccc3)ccc2N=C1N [Compound 142]	% Inhibition (FS) 10 μM: 38%
<30	<30	<30	CC(=O)Nc1ccccc1-c1ccc2c(c1)CN(CCNC(=O)C1CCCCC1)C(N)=N2 [Compound 541]	
<30	<30	<30	COc1cccc(COc2ccc3c(c2)CN(Cc2cccc(C(=O)N(C)C4CCCCC4)c2)C(N)=N3)c1 [Compound 514]	
<30	<30	<30	CN(C(=O)c1cccc(CN2Cc3cc(Nc4ccc(N5CCOCC5)cc4)ccc3N=C2N)c1)C1CCCCC1 [Compound 439]	
<30	<30	46	CC(C)Oc1ccccc1Oc1ccc2c(c1)CN(Cc1cccc(C(=O)N(C)C3CCCCC3)c1)C(N)=N2 [Compound 478]	
<30	<30	31	CC(C)c1ccccc1Oc1ccc2c(c1)CN(C(CC(=O)NC1CCCCC1)C1CCCCC1)C(N)=N2 (stereo not shown) [Compound 313]	
			NC1=Nc2ccc(-c3ccccc3F)cc2CN1CCNC(=O)C1CCC(C(F)(F)F)CC1 (stereo not shown) [Compound 688]	% Inhibition (FS) (0.3 μM test compound): <30%; % Inhibition (FS) (1 μM test compound): 36%; % Inhibition (FS) (3 μM test compound): 81%
52	72	97	CC(C)(C)C(=O)NCCN1Cc2cc(-c3ccccc3F)ccc2N=C1N [Compound 646]	
<30	58	101	CSc1ccc(Nc2ccc3c(c2)CN(Cc2cccc(C(=O)N(C)C4CCCCC4)c2)C(N)=N3)cc1 [Compound 442]	
<30	37	50	CN(C(=O)c1cccc(CN2Cc3cc(Nc4ccc5ccccc5c4)ccc3N=C2N)c1)C1CCCCC1 [Compound 436]	
<30	<30	33	CC(C)(C)OC(=O)NCc1cccc(CN2Cc3cc(Oc4ccccc4)ccc3N=C2N)c1 [Compound 315]	
<30	31	96	CC1CCCCN1C(=O)CCCC(CCC(=O)N1CCCCC1C)N1Cc2cc(Oc3ccccc3)ccc2N=C1N (stereo not shown) [Compound 504]	
		<30	NC1=Nc2ccc(Oc3ccccc3)cc2CN1C1CCN(C(=O)C2CCCC2)C1 (stereo not shown) [Compound 120]	% Inhibition (FS) 10 μM: 34%
<30	<30	<30	NC1=Nc2ccc(Oc3ccccc3)cc2CN1Cc1cccc(CNC(=O)C(F)(F)F)c1 [Compound 307]	

% Inhibition (FS) 0.3 μM (0.3 μM test compound) [%]	% Inhibition (FS) 1 μM (1 μM test compound) [%]	% Inhibition (FS) 3 μM (3 μM test compound) [%]	Compound	also measured
		<30	NC1=Nc2ccc(Oc3ccccc3)cc2CN1CCNC(=O)CCc1ccccc1 [Compound 155]	% Inhibition (FS) 10 μM: 49%
			CCCC(CNC(=O)C1CCCCC1)N1Cc2cc(Oc3ccccc3)ccc2N=C1N (stereo not shown) [Compound 554]	% Inhibition (FS) 0.3 μM (0.3 μM test compound, 0.3 µM): <30%; % Inhibition (FS) 1 μM (1 μM test compound, 1 µM): <30%; % Inhibition (FS) 3 μM (3 μM test compound, 3 µM): 42%
			CC(CC(=O)NCCN1Cc2cc(-c3ccccc3Cl)ccc2N=C1N)C(F)(F)F (stereo not shown) [Compound 683]	% Inhibition (FS) (0.3 μM test compound): 64%; % Inhibition (FS) (1 μM test compound): 86%; % Inhibition (FS) (3 μM test compound): 102%
<30	<30	48	CC(C)c1ccc(Sc2ccc3c(c2)CN(Cc2cccc(C(=O)N(C)C4CCCCC4)c2)C(N)=N3)cc1 [Compound 407]	
<30	<30	<30	CN1CCC(N(C)C(=O)c2cccc(CN3Cc4cc(Oc5ccccc5)ccc4N=C3N)c2)CC1 [Compound 223]	
<30	42	78	NC1=Nc2ccc(Oc3ccccc3)cc2CN1C(CCCC(=O)N1CCCCC1)CCC(=O)N1CCCCC1 (stereo not shown) [Compound 452]	
<30	<30	49	CC(C)[C@@H](CNC(=O)C12CC3CC(CC(C3)C1)C2)N1Cc2cc(Oc3ccccc3)ccc2N=C1N [Compound 553]	
			CN(C(=O)CCC(C1CCCCC1)N1Cc2cc(Oc3ccccc3)ccc2N=C1N)C1CCC(C#N)CC1 (stereo not shown) [Compound 769]	% Inhibition (FS) (0.3 μM test compound): <30%; % Inhibition (FS) (1 μM test compound): 61%; % Inhibition (FS) (3 μM test compound): 107%
<30	34	<30	CCCC(CCC)C(=O)N1CCCC(N2Cc3cc(Oc4ccccc4)ccc3N=C2N)C1 (stereo not shown) [Compound 612]	
			Cc1ccccc1-c1ccc2c(c1)CN(CCNC(=O)CCC(C)C)C(N)=N2 [Compound 661]	% Inhibition (FS) (0.3 μM test compound): 68%; % Inhibition (FS) (1 μM test compound): 98%; % Inhibition (FS) (3 μM test compound): 106%
		<30	NC1=Nc2ccc(Oc3ccccc3)cc2CN1C(CNC(=O)C1CCCCC1)Cc1ccc(O)cc1 (stereo not shown) [Compound 616]	
			NC1=Nc2ccc(Oc3ccccc3)cc2CN1C(Cc1ccccc1)c1ocnc1C(=O)NC1CCCCC1 (stereo not shown) [Compound 606, 5-[1-(2-Amino-6-phenoxy-4H-quinazolin-3-yl)-2-phenyl-ethyl]-oxazole-4-carboxylic acid cyclohexylamide]	inhibition at 0.3 µM (0.3 μM test compound, read-out: % Inhibition (FS) 0.3 μM): < 30%; inhibition at 1 µM (1 μM test compound, read-out: % Inhibition (FS) 1 μM): < 30%; inhibition at 3 µM (3 μM test compound, read-out: % Inhibition (FS) 3 μM): 56%
<30	<30	<30	CN(CCN1Cc2cc(Oc3ccccc3)ccc2N=C1N)C1CCCCC1 [Compound 429]	
		<30	CN(C(=O)c1ccc2c(c1)C(N1Cc3cc(Oc4ccccc4)ccc3N=C1N)CC2)C1CCCCC1 (stereo not shown) [Compound 145]	% Inhibition (FS) 10 μM: 37%
<30	<30	48	COc1ccc(C)cc1-c1ccc2c(c1)CN(CCNC(=O)C1CCCCC1)C(N)=N2 [Compound 630]	
<30	<30	48	CN(C(=O)CCC(C1CCCCC1)N1Cc2cc(Oc3ccccc3)ccc2N=C1N)C1CCC(O)CC1 (stereo not shown) [Compound 639]	
<30	<30	44	NC1=Nc2ccc(Oc3ccccc3)cc2CN1C1CCN(C(=O)C23CC4CC(CC(C4)C2)C3)CC1 [Compound 524]	
<30	<30	<30	CN(C(=O)CCC(CO)N1Cc2cc(Oc3ccccc3)ccc2N=C1N)C1CCCCC1 (stereo not shown) [Compound 557]	
<30	<30	<30	COc1ccc(C)cc1Oc1ccc2c(c1)CN(Cc1cccc(C(=O)N(C)C3CCCCC3)c1)C(N)=N2 [Compound 467]	
<30	36	98	CCCC(CCC)C(=O)N1CCC(CN2Cc3cc(Oc4ccccc4)ccc3N=C2N)CC1 [Compound 526]	
79	106	116	NC1=Nc2ccc(Oc3ccccc3)cc2CN1C(CNC(=O)C1CCCC1)C1CCCCC1 (stereo not shown) [Compound 295]	
46	82	101	CC(C)(C)C(=O)NCCN1Cc2cc(-c3ccccc3Cl)ccc2N=C1N [Compound 653]	
			CCCC(CNC(=O)C12CC3CC(CC(C3)C1)C2)N1Cc2cc(Oc3ccccc3)ccc2N=C1N (stereo not shown) [Compound 602]	% Inhibition (FS) 0.3 μM (0.3 μM test compound, 0.3 µM): 78%; % Inhibition (FS) 1 μM (1 μM test compound, 1 µM): 113%; % Inhibition (FS) 3 μM (3 μM test compound, 3 µM): 121%
